We go through 20 compounds from PubChem BioAssay AID248 (DTP/NCI, 2004).

This experiment has as its system L1210 leukemia ip in BDF1 mice, survival T/C. Briefly: NCI In Vivo Anticancer Drug Screen. Data for tumor model L1210 Leukemia (intraperitoneal) in B6D2F1 (BDF1) mice. Particulars: endpoint: mean survival time, higher = longer survival. In a few lines:
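Antitumor effect is assessed in tumor-bearing animals. Survival in the compound arm is compared with a vehicle-dosed control arm and expressed as their quotient.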

Where [1] appears, read: dose: 25.0 mg/kg/injection, schedule: Q01DX009 (ip), vehicle: saline.
[2] abbreviates: dose: 50.0 mg/kg/injection, schedule: Q01DX009 (ip), vehicle: saline.
[3] abbreviates: dose: 100.0 mg/kg/injection, schedule: Q01DX009 (ip), vehicle: saline.
[4] abbreviates: dose: 100.0 mg/kg/injection, schedule: Q04DX002 (ip), vehicle: saline with Tween-80.
[5] abbreviates: dose: 100.0 mg/kg/injection, schedule: Q01DX001 (ip), vehicle: carboxymethylcellulose (CMC).
The mark [6] stands for this setting: dose: 200.0 mg/kg/injection, schedule: Q01DX001 (ip), vehicle: carboxymethylcellulose (CMC).
The mark [7] stands for this setting: dose: 400.0 mg/kg/injection, schedule: Q01DX001 (ip), vehicle: carboxymethylcellulose (CMC).
Setting [8] is: dose: 200.0 mg/kg/injection, schedule: Q01DX009 (ip), vehicle: saline.
Setting [9] is: dose: 100.0 mg/kg/injection, schedule: Q04DX003 (ip), vehicle: Klucel (hydroxypropylcellulose) (HPC).
The mark [10] stands for this setting: dose: 200.0 mg/kg/injection, schedule: Q04DX003 (ip), vehicle: Klucel (hydroxypropylcellulose) (HPC).
The mark [11] stands for this setting: dose: 400.0 mg/kg/injection, schedule: Q04DX003 (ip), vehicle: Klucel (hydroxypropylcellulose) (HPC).
Setting [12] is: dose: 100.0 mg/kg/injection, schedule: Q01DX001 (ip), vehicle: Klucel (hydroxypropylcellulose) (HPC).

“And” between values parts separate entries of the source, which are not always exact repeats. Equal values may be shown once. Toxic doses and inconclusive results are not listed.

With `CCN(CC)CCN(CC)C(=S)Nc1ccccc1`, the T/C runs as follows: (dose: 12.5 mg/kg/injection, schedule: Q01DX009 (ip), vehicle: Klucel (hydroxypropylcellulose) (HPC)) 117 % of control; (dose: 25.0 mg/kg/injection, schedule: Q01DX009 (ip), vehicle: Klucel (hydroxypropylcellulose) (HPC)) 109 % of control; (dose: 50.0 mg/kg/injection, schedule: Q01DX009 (ip), vehicle: Klucel (hydroxypropylcellulose) (HPC)) 102 % of control.
Take `NCC1CCCO1` (stereo not given): the T/C by setting is: under setting [1], 98 % of control; under setting [2], 95 % of control; under setting [3], 101 % of control.
With `C[N+](C)(C)CCOC(=O)c1ccc(CCl)cc1`, the T/C reads like this: (dose: 25.0 mg/kg/injection, schedule: Q04DX002 (ip), vehicle: saline with Tween-80) 113 % of control; (dose: 50.0 mg/kg/injection, schedule: Q04DX002 (ip), vehicle: saline with Tween-80) 102 % of control; (dose: 100.0 mg/kg/injection, schedule: Q04DX002 (ip), vehicle: other) 98 % of control; under setting [4], 110 % of control.
As for `CCCCNCCO`, the T/C was 96 % of control under setting [1], 100 % of control under setting [2] and 115 % of control under setting [3].
On to `O=C1C=CC(=O)c2nc(-c3ccccn3)c(-c3ccccn3)nc21`, for which the T/C was 92 % of control (dose: 1.56 mg/kg/injection, schedule: Q04DX003 (ip), vehicle: Klucel (hydroxypropylcellulose) (HPC)); 93 % of control (dose: 3.12 mg/kg/injection, schedule: Q04DX003 (ip), vehicle: Klucel (hydroxypropylcellulose) (HPC)); 90 % of control (dose: 6.25 mg/kg/injection, schedule: Q04DX003 (ip), vehicle: Klucel (hydroxypropylcellulose) (HPC)); 101 % of control (dose: 18.0 mg/kg/injection, schedule: Q01DX009 (ip), vehicle: Klucel (hydroxypropylcellulose) (HPC)); 100 % of control (dose: 28.0 mg/kg/injection, schedule: Q01DX009 (ip), vehicle: Klucel (hydroxypropylcellulose) (HPC)); 93 % of control (dose: 40.0 mg/kg/injection, schedule: Q01DX009 (ip), vehicle: Klucel (hydroxypropylcellulose) (HPC)).
In the case of `C[n+]1cccc2c3ccccc3c(-c3ccccc3)cc21`, the T/C is, setting by setting: (dose: 0.78 mg/kg/injection, schedule: Q01DX009 (ip), vehicle: water) 86 % of control; (dose: 1.56 mg/kg/injection, schedule: Q01DX009 (ip), vehicle: water) 102 % of control; (dose: 3.12 mg/kg/injection, schedule: Q01DX009 (ip), vehicle: water) 87 % of control; (dose: 6.25 mg/kg/injection, schedule: Q01DX009 (ip), vehicle: water) 112 % of control and 92 % of control; (dose: 12.5 mg/kg/injection, schedule: Q04DX003 (ip), vehicle: water) 104 % of control; (dose: 25.0 mg/kg/injection, schedule: Q04DX003 (ip), vehicle: water) 104 % of control.
As for `Cc1ccc(-c2ccno2)cc1`, the T/C was 96 % of control under setting [5], 92 % of control under setting [6] and 97 % of control under setting [7].
On to `CC(=O)CC(Cl)(C(F)(F)F)C(F)(F)F`, for which the T/C is 100 % of control (dose: 50.0 mg/kg/injection, schedule: Q04DX003 (ip), vehicle: saline with Tween-80); 100 % of control (dose: 100.0 mg/kg/injection, schedule: Q04DX003 (ip), vehicle: saline with Tween-80); 86 % of control (dose: 200.0 mg/kg/injection, schedule: Q04DX003 (ip), vehicle: saline with Tween-80); 88 % of control (dose: 400.0 mg/kg/injection, schedule: Q04DX003 (ip), vehicle: saline with Tween-80).
`COc1cccc2c1CCC1=C2CC2C(=O)C1CCC2(C)O` (stereo not given): the T/C under setting [3] was 109 % of control; the T/C (dose: 100.0 mg/kg/injection, schedule: Q04DX003 (ip), vehicle: saline) is 94 % of control; the T/C under setting [8] was 108 % of control; the T/C (dose: 200.0 mg/kg/injection, schedule: Q04DX003 (ip), vehicle: saline) is 119 % of control; the T/C (dose: 400.0 mg/kg/injection, schedule: Q01DX009 (ip), vehicle: saline) was 101 % of control; the T/C (dose: 400.0 mg/kg/injection, schedule: Q04DX003 (ip), vehicle: saline) was 110 % of control.
On to `CC(=O)NC1CON=C1OS(=O)(=O)c1ccc(C)cc1` (stereo not given), for which the T/C (dose: 100.0 mg/kg/injection, schedule: Q01DX001 (ip), vehicle: saline with Tween-80) is 89 % of control; the T/C (dose: 200.0 mg/kg/injection, schedule: Q01DX001 (ip), vehicle: saline with Tween-80) was 89 % of control; the T/C (dose: 400.0 mg/kg/injection, schedule: Q01DX001 (ip), vehicle: saline with Tween-80) is 100 % of control.
As for `O=C1OCCC1n1cc(F)c(=O)[nH]c1=O` (stereo not given), the T/C under setting [9] was 102 % of control, the T/C under setting [10] was 98 % of control and the T/C under setting [11] was 96 % of control.
`CCOP(=S)(OCC)Oc1cccc(NC(=O)CC)c1`: the T/C (dose: 100.0 mg/kg/injection, schedule: Q01DX009 (ip), vehicle: saline with Tween-80) is 102 % of control; the T/C (dose: 200.0 mg/kg/injection, schedule: Q01DX009 (ip), vehicle: saline with Tween-80) was 104 % of control; the T/C (dose: 400.0 mg/kg/injection, schedule: Q01DX009 (ip), vehicle: saline with Tween-80) is 93 % of control.
Consider `CN(C)C(=O)c1cc(NC(=O)Nc2ccc(C3=NCCN3)cc2)cc(NC(=O)Nc2ccc(C3=NCCN3)cc2)c1`, for which the T/C (dose: 15.0 mg/kg/injection, schedule: Q01DX Z (ip), vehicle: saline) is 158 % of control; the T/C (dose: 30.0 mg/kg/injection, schedule: Q01DX Z (ip), vehicle: saline) is 222 % of control; the T/C (dose: 60.0 mg/kg/injection, schedule: Q01DX Z (ip), vehicle: saline) was 250 % of control.
Turning to `c1ccc(C2=NNC(c3ccccc3)=C(c3ccccc3)C2)cc1`, the T/C is 89 % of control under setting [12]; 98 % of control under setting [9]; 103 % of control (dose: 200.0 mg/kg/injection, schedule: Q01DX001 (ip), vehicle: Klucel (hydroxypropylcellulose) (HPC)); 100 % of control under setting [10]; 101 % of control (dose: 400.0 mg/kg/injection, schedule: Q01DX001 (ip), vehicle: Klucel (hydroxypropylcellulose) (HPC)); 100 % of control under setting [11].
For `CCOC(=O)c1[nH]c2ccsc2c1CN1CCCCC1`, the T/C is, setting by setting: (dose: 50.0 mg/kg/injection, schedule: Q01DX001 (ip), vehicle: Klucel (hydroxypropylcellulose) (HPC)) 93 % of control; under setting [12], 101 % of control.
As for `OCC1C(CO)C2CC1C1N=NN(c3ccccc3)C21` (stereo not given), the T/C by setting is: under setting [4], 93 % of control; (dose: 200.0 mg/kg/injection, schedule: Q04DX002 (ip), vehicle: saline with Tween-80) 90 % of control; (dose: 400.0 mg/kg/injection, schedule: Q04DX002 (ip), vehicle: saline with Tween-80) 93 % of control.
As to `O=C(O)c1cc(F)ccc1F`, the T/C was 97 % of control (dose: 100.0 mg/kg/injection, schedule: Q04DX002 (ip), vehicle: Klucel (hydroxypropylcellulose) (HPC)) and 108 % of control (dose: 200.0 mg/kg/injection, schedule: Q04DX002 (ip), vehicle: Klucel (hydroxypropylcellulose) (HPC)).
Consider `OCC1OCOC(CI)C(O)C1O` (stereo not given), for which the T/C runs as follows: under setting [5], 97 % of control; under setting [6], 101 % of control; under setting [7], 97 % of control.
For `CC(=O)OCc1ccc(Cl)cc1`, the T/C by setting is: under setting [3], 96 % of control; under setting [8], 102 % of control.
With `C1=C2CCCCC2OC1` (stereo not given), the T/C reads like this: (dose: 75.0 mg/kg/injection, schedule: Q01DX001 (ip), vehicle: carboxymethylcellulose (CMC)) 97 % of control; (dose: 150.0 mg/kg/injection, schedule: Q01DX001 (ip), vehicle: carboxymethylcellulose (CMC)) 98 % of control.
